Data: ChEMBL document CHEMBL1125954, “Studies on quinazolinones. 3: 1 novel and efficient route to the synthesis of conformationally restricted analogues of ketanserin and SGB-1534 as antihypertensive agents” (Bioorg Med Chem Lett, 1991)

Molecular target: Adrenergic receptor alpha-1 (Rattus norvegicus) (UniProt P15823+P23944+P43140)
Experiment: Compound was tested for antihypertensive activity mediated through Alpha-1 adrenergic receptor in anesthetized rat
Assay type: functional

In the case of O=C1Nc2ccccc2C2=NC(CN3CCN(c4ccccc4)CC3)CN12 (stereo unspecified), the ED50 is reported as 0.25 mg/kg.
